A short description of data set [1]: Hydroxyl (HO•) free radical scavenging assay (competition with DMSO). An excerpt: The hydroxyl (HO^•) free radical is considered as the most toxic and reactive radical among the ROS, leading to cellular or protein damage, membrane destruction, and even to cellular death when encountered in excess concentration. In this context, the evaluation of the hydroxyl radical scavenging activity of the coumarin analogues was essential. Hydroxyl radicals are mainly produced by the Haber–Weiss reaction in the presence of iron or copper ions. In this protocol, iron-EDTA solution, which catalyzes the autooxidation of ascorbic acid, was used as the hydroxyl radical generation system. In general, the hydroxyl radicals formed oxidize the DMSO to form formaldehyde. The reaction involves the initial interaction of DMSO with the hydroxyl radicals to give methyl radicals, with the final product being formaldehyde, which is determined by Nash method. The intensity of the yellow solution formed was measured at 412 nm against a reagent blank.
For the evaluation of hydroxyl radical scavenging ability, the protocol described by Kontogiorgis et al. was used. In short, each sample was tested in quadruplicate (A, B, C, D). For A and B, 10 μL of coumarin analogs diluted in DMSO (100 mM) were added; for C and D were the respective blanks. Standards (containing DMSO solution) and blanks were all prepared in a similar manner; to the latter an equal amount (10 µL) of solvent was added instead of the tested analogues. According to the protocol described by Klein et al., standard solutions of EDTA, FeCl3, ascorbic acid, and buffer solution (pH 7.4) were also added to each of the tested mixtures. All mixtures were incubated at 37 °C for 30 min, and then 1 mL of Nash solution and […] of CCl3COOH solution were added. After a 10min incubation at 60 °C to allow the formation of the yellow mixture, the absorbance was measured at […].
The results were calculated as performance percentages in relation to the respective standards and blanks according to the following Equation (4):(4) % Scavenging ability= Mean OD(A+B)−Mean OD(C+D)/Mean OD(A+B)

The subject of a further data set is A549 cells. As to the kind of experiment: MTT cytotoxicity assay, A549. In kind it is cell-based, human. The settings on record: 24 h; for cytotoxicity at 100 µM: Homo sapiens, A549, 100 μΜ, read-out: Cell Toxicity A549 % (100 μΜ). The method, then: Furthermore, the coumarin compounds synthesized in this study were also evaluated for their cytotoxicity against A549 (adenocarcinomic human alveolar basal epithelial cells) and A375 (human melanoma) cell lines.
This protocol was used for the evaluation of cell viability and all the cell lines. It must be noted that this assay describes the count of cells that remain alive after the treatment. For the experimental procedure a standard solution of MTT 1mg/mL in PBS was prepared which after filtration ([…] filter (Millipore, Carrigtwohill, Ireland)) was stored in the dark (4–8 °C) until use. In a 96-well plate, HaCaT, A549 and A375 cells were seeded in a number of 30 × 10^4 cells/well for each evaluation series respectively. The cells were incubated (37 °C, 5% CO2) for 24 h, followed by the addition of the tested analogues (100 μM, diluted in DMEM) and another 24-h incubation. Next, appropriate amount of MTT was added in the tested wells and the plate returned to the incubator for the next 4 h for the formation of the formazan crystals. The formazan crystals were then redissolved by adding DMSO (100 μL) and stirring lightly for 40 min, after which the absorbance was measured in a plate reader at 540 nm with a reference absorbance of 720 nm.
All samples were tested in triplicate, against a control (only cells), blank (no cells), and positive control (100 μM standard silibinin solution was used as a “cell-killing” standard).

The nature of data set [2]: Inhibition of AAPH induced linoleic acid oxidation (lipid peroxidation). The source says:
AAPH induced linoleic acid oxidation has been developed as a quick and reliable antioxidant activity assay. It is based on the inhibition of linoleic acid oxidation, initiated by the thermal free radical producer 2,2′-azobis(2-amidinopropane) dihydrochloride (AAPH), providing a measure of how efficiently antioxidants protect against lipid oxidation in vitro. Oxidation of exogenous linoleic acid by AAPH is followed by UV spectrophotometry at 234 nm in a highly diluted sample [38].
For the reference sample in a UV cuvette, 10 μL of the test sample (100 μM diluted in DMSO), 10 μL linoleic acid (LA) (16 mM), and buffer solution (pH 7.4) were added to a final volume of 1ml. For the measurement sample, in a UV cuvette, 10 μL of test sample, 50 μL AAPH (40 mM), 10 μL LA, and buffer solution were added to a final volume of 1 mL. Standard and blank samples were prepared in the same way using DMSO (solvent) instead of the tested coumarin analogues. The absorbance was measured after 2 min at 37 °C at 234 nm. Results were obtained via the following Equation (5):(5) %Inhibition=(Standard−Blank)−(Reference Sample−Measurement Sample)/(Standard−Blank) × 100

A short description of data set [3]: IAM chromatography (IAM.PC.DD.2 column) and estimated human oral absorption. In kind it is in vitro ADME. The settings on record: for %HOA estimated human oral absorption: Equation (1) from logkw and physicochemical properties; for logkw (IAM retention factor): pH 7.40, IAM.PC.DD.2, intercept at pure aqueous phase. As for the experimental part: The immobilized artificial membrane (IAM) chromatographic behavior of the 25 novel coumarin derivatives was studied. IAM stationary phases consisting of monolayers of phospholipids (e.g., phosphatidylcholine, PC) immobilized on a propylamine–silica support can simulate interactions of chemicals with cell membranes.
Using an IAM.PC.DD2 column (Regis Technologies) as the stationary phase with PBS as the mobile phase at pH = 7.40, and a flow rate of 3 mL/min in the presence of acetonitrile fractions (C%) of 10%, 15%, 20%, 25%, and 30%, a logkC% value was obtained via the retention time for each concentration of CH3CN. Retention factors were then used to plot logkC% as a function of acetonitrile fraction. The intercept of the linear regression corresponds to the logkw, corresponding to pure aqueous phase.
(1) % HOA=100/1+10^−(2.17+0.88*logkw−0.006*MW−0.83*A−0.53*F^*++1.18*F^*−)
The physicochemical and biomimetic properties of the new coumarin analogues were studied using liquid chromatography (HPLC) in 220–230 nm Two types of chromatographic columns were used: (i) immobilized artificial membrane (IAM) ([…].PC.DD.2, Regis Technologies) column and (ii) human serum albumin (HSA) (CHIRAL PAK) column.
The training set consisted of 25 neutral and slightly acidic compounds. Their IAM retention factors were measured at pH 7.40 on a IAM.PC.DD.2 column. The mobile phase consisted of acetonitrile solvent (CH3CN) in various concentrations (10%, 15%, 20%, 25%, 30%) and a flow rate of 3 mL/min was selected. Their HSA retention factors were measured at pH 7.00 on HSA column. The mobile phase consisted of acetonitrile solvent (CH3CN) in 10% concentration and a flow rate of 1 mL/min was selected.
The different pH values (7.00 for HSA and 7.40 for IAM) were measured with an electronic pH meter MP125 and were achieved by preparing suitable buffers of phosphates and chlorides (0.12 g KH2PO4, 0.72 g Na2HPO4·2H2O, 4.00 g NaCl and 0.10 g KCl). Sodium citrate solution was used to determine the dead time, which was deducted from the results at the end of measurements. The elution time of each coumarin analogue was measured at least three times. Retention times were converted into logk values, which represent the logarithm of the retention indexes, using Equation (8). (8) logk=log(tr−t0/t0) where tr is the retention time of the coumarin derivative and t0 is the dead time.

The source of these data is paper PMC8512853, “Synthesis, Bioactivity, Pharmacokinetic and Biomimetic Properties of Multi-Substituted Coumarin Derivatives” (Molecules, 2021).

Each structure is given as a SMILES string.

Usually IC50 stands for the concentration that inhibits the measured activity by half. Lower therefore signals greater potency in that assay. Turning to `CC(=O)Oc1cccc2oc(=O)c(-c3cccc(Cl)c3)c(C)c12` [Compound 3b, 5-acetyloxy-3-(3-chlorophenyl)-4-methyl-chromen-2-one], the “HO^• % (100 μΜ) scavenging” value in data set [1] is reported as 96.4%. Moreover, in the data set with A549 cells, the cytotoxicity at 100 µM turned out to be 24.6%. Half-maximal inhibition in data set [2] (IC50) was put at 91.5 µM. In data set [3], the “%HOA estimated human oral absorption” value is 99.8% and the “logkw (IAM retention factor)” value is listed as 2.88.

On to `CC(=O)Oc1cccc2oc(=O)c(-c3ccccc3Cl)c(C)c12` [Compound 3a, 5-acetyloxy-3-(2-chlorophenyl)-4-methyl-chromen-2-one], for which the “HO^• % (100 μΜ) scavenging” value in data set [1] was 97.0%. The “Cell Toxicity A549 % (100 μΜ)” value with A549 cells is on record as “no”. This molecule had an IC50 in data set [2] of 71.9 µM. Further, in data set [3], the “%HOA estimated human oral absorption” value is given as 100% and the “logkw (IAM retention factor)” value is 3.58.

On to `CC(=O)Oc1cccc2oc(=O)c(-c3ccc(Cl)cc3)c(C)c12` [Compound 3c, 5-acetyloxy-3-(4-chlorophenyl)-4-methyl-chromen-2-one], for which the “HO^• % (100 μΜ) scavenging” value in data set [1] is on record as 30.8%. Moreover, the “Cell Toxicity A549 % (100 μΜ)” value with A549 cells was “no”. In data set [2], this molecule displayed an IC50 of 75.1 µM. In data set [3], the “%HOA estimated human oral absorption” value was 99.9% and the “logkw (IAM retention factor)” value is 3.05.

With `CC(=O)Oc1ccc(-c2c(C)c3cc(Br)cc(Br)c3oc2=O)cc1` [Compound 3k, 3-(4-acetyloxyphenyl)-6,8-dibromo-4-methyl-chromen-2-one], the “HO^• % (100 μΜ) scavenging” value in data set [1] was 92.9%. Also, the “Cell Toxicity A549 % (100 μΜ)” value with A549 cells was “no”. Besides, the “AAPH % inhibition (100 μΜ)” value in data set [2] was “inactive and no”. Also, in data set [3], the “%HOA estimated human oral absorption” value is 99.9% and the “logkw (IAM retention factor)” value is reported as 3.91.

As for `Cc1c(-c2cccc(F)c2)c(=O)oc2cccc(O)c12` [Compound 4e, 3-(3-fluorophenyl)-5-hydroxy-4-methyl-chromen-2-one], the “HO^• % (100 μΜ) scavenging” value in data set [1] is given as 100%. Moreover, in the data set with A549 cells, the cytotoxicity at 100 µM was determined as 52.3%. In addition, in data set [2], the “AAPH % inhibition (100 μΜ)” value is recorded as 31.0%. Besides, in data set [3], the “%HOA estimated human oral absorption” value is reported as 99.9% and the “logkw (IAM retention factor)” value is recorded as 3.23.

With `Cc1c(-c2ccc(Cl)cc2)c(=O)oc2cccc(O)c12` [Compound 4c, 3-(4-chlorophenyl)-5-hydroxy-4-methyl-chromen-2-one], the “HO^• % (100 μΜ) scavenging” value in data set [1] is listed as 48.5%. The cytotoxicity at 100 µM in the data set with A549 cells was 54.5%. In data set [2], this molecule returned an IC50 of 86.6 µM. Besides, in data set [3], the “%HOA estimated human oral absorption” value is 100% and the “logkw (IAM retention factor)” value is given as 4.53.

Turning to `CC(=O)Oc1ccc(-c2c(C)c3ccccc3oc2=O)cc1` [Compound 3h, 3-(4-acetyloxyphenyl)-4-methyl-chromen-2-one], in data set [1], the “HO^• % (100 μΜ) scavenging” value was determined as 100%. The “Cell Toxicity A549 % (100 μΜ)” value with A549 cells is listed as “no”. This molecule also displayed an IC50 in data set [2] of 70.7 µM. Further, in data set [3], the “%HOA estimated human oral absorption” value was 99.7% and the “logkw (IAM retention factor)” value is 2.48.

`Cc1c(-c2cccc(Cl)c2)c(=O)oc2cccc(O)c12` [Compound 4b, 3-(3-chlorophenyl)-5-hydroxy-4-methyl-chromen-2-one]: the “HO^• % (100 μΜ) scavenging” value in data set [1] is recorded as 100%. Besides, in the data set with A549 cells, the “Cell Toxicity A549 % (100 μΜ)” value is given as “no”. The “AAPH % inhibition (100 μΜ)” value in data set [2] was “no”. Further, in data set [3], the “%HOA estimated human oral absorption” value was 99.9% and the “logkw (IAM retention factor)” value is on record as 3.73.

Turning to `CC(=O)Oc1cccc2oc(=O)c(-c3cccc(Br)c3)c(C)c12` [Compound 3g, 5-acetyloxy-3-(3-bromophenyl)-4-methyl-chromen-2-one], in data set [1], the “HO^• % (100 μΜ) scavenging” value is given as 42.0%. The “Cell Toxicity A549 % (100 μΜ)” value with A549 cells is given as “no”. The molecule further displayed an IC50 in data set [2] of 50.7 µM. Moreover, in data set [3], the “%HOA estimated human oral absorption” value is 100.0% and the “logkw (IAM retention factor)” value was 4.77.

For `Cc1c(-c2ccc(O)cc2)c(=O)oc2ccccc12` [Compound 4h, 3-(4-hydroxyphenyl)-4-methyl-chromen-2-one], the “HO^• % (100 μΜ) scavenging” value in data set [1] is on record as 72.2%. Also, the cytotoxicity at 100 µM in the data set with A549 cells is 33.7%. In data set [2], the “AAPH % inhibition (100 μΜ)” value was “no”. Further, in data set [3], the “%HOA estimated human oral absorption” value is on record as 99.8% and the “logkw (IAM retention factor)” value is recorded as 3.34.

For `Cc1c(-c2ccccc2F)c(=O)oc2cccc(O)c12` [Compound 4d, 3-(2-fluorophenyl)-5-hydroxy-4-methyl-chromen-2-one], in data set [1], the “HO^• % (100 μΜ) scavenging” value was 21.9%. For the same molecule, the cytotoxicity at 100 µM in the data set with A549 cells amounted to 75.7%. The “AAPH % inhibition (100 μΜ)” value in data set [2] stood at 0.0%. In addition, in data set [3], the “%HOA estimated human oral absorption” value is on record as 100% and the “logkw (IAM retention factor)” value is 4.69.

For the molecule `CC(=O)Oc1cccc2oc(=O)c(-c3cccc(F)c3)c(C)c12` [Compound 3e, 5-acetyloxy-3-(3-fluorophenyl)-4-methyl-chromen-2-one], the “HO^• % (100 μΜ) scavenging” value in data set [1] amounted to 85.2%. In the data set on A549 cells, the cytotoxicity at 100 µM was 8.9%. The “AAPH % inhibition (100 μΜ)” value in data set [2] is “inactive and no”. Moreover, in data set [3], the “%HOA estimated human oral absorption” value is 99.7% and the “logkw (IAM retention factor)” value is on record as 2.47.
